Reference: PubChem BioAssay AID248 (DTP/NCI, 2004)
Where “and” joins values, the source holds several entries; their conditions need not be identical. Identical values can stand only once. Toxic doses and inconclusive results are not listed. Cut-off read from the data, not from the text of the source: active = T/C of 150% or more; inactive = T/C below 125%.

Test system: L1210 leukemia ip in BDF1 mice, survival T/C
Assay: NCI In Vivo Anticancer Drug Screen. Data for tumor model L1210 Leukemia (intraperitoneal) in B6D2F1 (BDF1) mice
Details: endpoint: mean survival time, higher = longer survival
Outline: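 Transplanted-tumor mice were given test agent; controls received vehicle only. Survival readings from the two groups were divided (treated over control).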

[1] = dose: 100.0 mg/kg/injection, schedule: Q04DX003 (ip), vehicle: Klucel (hydroxypropylcellulose) (HPC)
[2] = dose: 200.0 mg/kg/injection, schedule: Q04DX003 (ip), vehicle: Klucel (hydroxypropylcellulose) (HPC)
[3] = dose: 400.0 mg/kg/injection, schedule: Q04DX003 (ip), vehicle: Klucel (hydroxypropylcellulose) (HPC)
[4] = dose: 100.0 mg/kg/injection, schedule: Q01DX001 (ip), vehicle: saline
[5] = dose: 200.0 mg/kg/injection, schedule: Q01DX001 (ip), vehicle: saline
[6] = dose: 400.0 mg/kg/injection, schedule: Q01DX001 (ip), vehicle: saline

Measured: T/C

COc1ccc(C2CCc3cc(OC)c(OC)cc3C2NC=O)cc1OC (stereo unspecified)
inactive: dose: 40.0 mg/kg/injection, schedule: Q01DX009 (ip), vehicle: saline with Tween-80 90 % of control | dose: 80.0 mg/kg/injection, schedule: Q01DX009 (ip), vehicle: saline with Tween-80 102 % of control | dose: 120.0 mg/kg/injection, schedule: Q01DX009 (ip), vehicle: saline with Tween-80 93 % of control | dose: 240.0 mg/kg/injection, schedule: Q01DX009 (ip), vehicle: saline with Tween-80 90 % of control | dose: 360.0 mg/kg/injection, schedule: Q01DX009 (ip), vehicle: saline with Tween-80 87 % of control

O=C(COc1ccc(Br)cc1)Nc1ccc(Cl)cc1
inactive: dose: 100.0 mg/kg/injection, schedule: Q04DX002 (ip), vehicle: Klucel (hydroxypropylcellulose) (HPC) 95 % of control | dose: 200.0 mg/kg/injection, schedule: Q04DX002 (ip), vehicle: Klucel (hydroxypropylcellulose) (HPC) 92 % of control | dose: 400.0 mg/kg/injection, schedule: Q04DX002 (ip), vehicle: Klucel (hydroxypropylcellulose) (HPC) 89 % of control

CC1CCCC2=[N+]1CCCC2 (stereo unspecified)
inactive: dose: 50.0 mg/kg/injection, schedule: Q01DX001 (ip), vehicle: carboxymethylcellulose (CMC) 96 % of control | dose: 100.0 mg/kg/injection, schedule: Q01DX001 (ip), vehicle: carboxymethylcellulose (CMC) 96 % of control | dose: 200.0 mg/kg/injection, schedule: Q01DX001 (ip), vehicle: carboxymethylcellulose (CMC) 93 % of control

O=C(c1ccccc1)c1ccc(NC(=S)Nc2ccc(C(=O)c3ccccc3)cc2)cc1
inactive: dose: 20.0 mg/kg/injection, schedule: Q01DX005 (ip), vehicle: saline with Tween-80 97 % of control | dose: 40.0 mg/kg/injection, schedule: Q01DX005 (ip), vehicle: saline with Tween-80 92 % of control | dose: 80.0 mg/kg/injection, schedule: Q01DX005 (ip), vehicle: saline with Tween-80 92 % of control | dose: 160.0 mg/kg/injection, schedule: Q01DX005 (ip), vehicle: saline with Tween-80 95 % of control | dose: 320.0 mg/kg/injection, schedule: Q01DX005 (ip), vehicle: saline with Tween-80 97 % of control

COC1OC(COC(C)=O)C(OC(C)=O)C(OC(C)=O)[CH]1[Hg][S]c1ccccc1 (stereo unspecified)
inactive: dose: 1.0 mg/kg/injection, schedule: Q01DX015 (ip), vehicle: carboxymethylcellulose (CMC) 105 % of control | dose: 2.0 mg/kg/injection, schedule: Q01DX015 (ip), vehicle: carboxymethylcellulose (CMC) 98 % of control | dose: 4.0 mg/kg/injection, schedule: Q01DX015 (ip), vehicle: carboxymethylcellulose (CMC) 100 % of control | dose: 8.0 mg/kg/injection, schedule: Q01DX015 (ip), vehicle: carboxymethylcellulose (CMC) 94 % of control and 86 % of control | dose: 16.0 mg/kg/injection, schedule: Q01DX015 (ip), vehicle: carboxymethylcellulose (CMC) 109 % of control

Cc1nc(N)cc(Cl)n1
inactive: [1] 101 % of control | [2] 103 % of control | [3] 90 % of control

COc1ccc(NC(=O)Oc2ccccc2-c2ccccc2)cc1
inactive: dose: 100.0 mg/kg/injection, schedule: Q04DX003 (ip), vehicle: saline with Tween-80 91 % of control | dose: 200.0 mg/kg/injection, schedule: Q04DX003 (ip), vehicle: saline with Tween-80 91 % of control | dose: 400.0 mg/kg/injection, schedule: Q04DX003 (ip), vehicle: saline with Tween-80 86 % of control

CCC(CC)OCCN1CCN(CCCN2c3ccccc3Sc3ccc(C(F)(F)F)cc32)CC1
inactive: dose: 0.39 mg/kg/injection, schedule: Q01DX009 (ip), vehicle: saline with Tween-80 107 % of control | dose: 0.78 mg/kg/injection, schedule: Q01DX009 (ip), vehicle: saline with Tween-80 107 % of control | dose: 1.56 mg/kg/injection, schedule: Q01DX009 (ip), vehicle: saline with Tween-80 95 % of control | dose: 1.56 mg/kg/injection, schedule: Q04DX003 (ip), vehicle: saline with Tween-80 97 % of control | dose: 3.12 mg/kg/injection, schedule: Q04DX003 (ip), vehicle: saline with Tween-80 96 % of control | dose: 6.25 mg/kg/injection, schedule: Q04DX003 (ip), vehicle: saline with Tween-80 112 % of control | dose: 12.5 mg/kg/injection, schedule: Q04DX003 (ip), vehicle: saline with Tween-80 97 % of control

N#Cc1ccc(OCCCOc2ccc([N+](=O)[O-])cc2)cc1
inactive: [1] 106 % of control | [2] 100 % of control | [3] 103 % of control

CCCCSP(=O)(c1ccccc1)N1CCCCC1 (stereo unspecified)
inactive: dose: 25.0 mg/kg/injection, schedule: Q04DX002 (ip), vehicle: saline with Tween-80 100 % of control | dose: 50.0 mg/kg/injection, schedule: Q04DX002 (ip), vehicle: saline with Tween-80 92 % of control | dose: 100.0 mg/kg/injection, schedule: Q04DX002 (ip), vehicle: saline with Tween-80 92 % of control and 97 % of control

N=N/C(=C\c1c(O)[nH]c2ccccc12)c1ccccc1
inactive: dose: 100.0 mg/kg/injection, schedule: Q04DX002 (ip), vehicle: gum acacia 92 % of control | dose: 200.0 mg/kg/injection, schedule: Q04DX002 (ip), vehicle: gum acacia 89 % of control | dose: 400.0 mg/kg/injection, schedule: Q04DX002 (ip), vehicle: gum acacia 100 % of control

NC(CCl)C(=O)O (stereo unspecified)
inactive: dose: 6.25 mg/kg/injection, schedule: Q01DX001 (ip), vehicle: saline 103 % of control | dose: 12.5 mg/kg/injection, schedule: Q01DX001 (ip), vehicle: saline 101 % of control | dose: 25.0 mg/kg/injection, schedule: Q01DX001 (ip), vehicle: saline 103 % of control | dose: 50.0 mg/kg/injection, schedule: Q01DX001 (ip), vehicle: saline 97 % of control | [4] 92 % of control | [5] 90 % of control

CCN(CC)C(=S)c1ccc(C(=S)N(CC)CC)cc1
inactive: [1] 91 % of control | [2] 93 % of control | [3] 93 % of control

N#Cc1ccncc1
inactive: dose: 100.0 mg/kg/injection, schedule: Q01DX009 (ip), vehicle: Klucel (hydroxypropylcellulose) (HPC) 91 % of control | dose: 200.0 mg/kg/injection, schedule: Q01DX009 (ip), vehicle: Klucel (hydroxypropylcellulose) (HPC) 93 % of control | dose: 400.0 mg/kg/injection, schedule: Q01DX009 (ip), vehicle: Klucel (hydroxypropylcellulose) (HPC) 96 % of control

CCc1ccc(C)[n+](C)c1
inactive: dose: 75.0 mg/kg/injection, schedule: Q01DX001 (ip), vehicle: saline 96 % of control | dose: 150.0 mg/kg/injection, schedule: Q01DX001 (ip), vehicle: saline 95 % of control

Oc1ccc2c(ccc3ccc4ccccc4c32)c1
inactive: dose: 100.0 mg/kg/injection, schedule: Q01DX001 (ip), vehicle: alcohol 103 % of control | dose: 200.0 mg/kg/injection, schedule: Q01DX001 (ip), vehicle: alcohol 100 % of control | dose: 400.0 mg/kg/injection, schedule: Q01DX001 (ip), vehicle: alcohol 95 % of control

NC(=O)NCCO
inactive: [4] 98 % of control | [5] 106 % of control | [6] 98 % of control

O=c1c(O)c(-c2ccc(O)cc2O)oc2cc(O)cc(O)c12
inactive: dose: 100.0 mg/kg/injection, schedule: Q01DX009 (ip), vehicle: saline with Tween-80 103 % of control | dose: 200.0 mg/kg/injection, schedule: Q01DX009 (ip), vehicle: saline with Tween-80 98 % of control | dose: 400.0 mg/kg/injection, schedule: Q01DX009 (ip), vehicle: saline with Tween-80 90 % of control

[Cl][Tl]
inactive: [4] 94 % of control | dose: 100.0 mg/kg/injection, schedule: Q04DX003 (ip), vehicle: saline 106 % of control | [5] 101 % of control | dose: 200.0 mg/kg/injection, schedule: Q04DX003 (ip), vehicle: saline 90 % of control | [6] 94 % of control
